Values after ≈ are worked out from the molar mass of the structure shown.
Assays:
[1] = system: TCF/LEF dependent reporter gene (wnt/beta-catenin signaling) in HEK293 cells; assay: Top-flash assay: HEK293 cells transfected with a TCF/LEF dependent reporter gene; format: cell-based; conditions: for inhibition of wnt-signaling path in HEK293 reporter assay: even at concentrations of 50 uM
Experimental: FIG. 2 in graphic form illustrates data comparing inhibition of beta-catenin in a “Top-flash assay.” In this assay HEK 293 cells were transfected with a TCF/LEF dependent reporter gene and expression plasmid for Dsh. After overnight incubation, the cells were treated with the indicated amounts of debromohymenialdesine (“MC-001”, or dBHD, or dbHD), which is compound I in FIG. 1, analog II and III, or vehicle alone, after which the reporter gene activity was measured. All cells were also transfected with a reporter gene control for testing the transfection efficiency. In FIG. 2, the first pair of bars (to the left, closest to the y, or “fold induction”, axis) is DMSO, then moving right, the second pair of bars is 5 μM debromohymenialdesine, or dbHD (compound I of FIG. 1), then 10 μM dbHD, then 20 μM dbHD, then 50 μM compound II of FIG. 1, then 50 μM compound III of FIG. 1.
A dose response curve for debromohymenialdesine, or “MC-001”, or dbHD (or dBHD), (compound I of FIG. 1) from the HEK293 cell line assay is shown in FIG. 3. The curve is well behaved showing a relatively steep sigmoidal inhibition-concentration profile with an IC50 value of 2 uM.

Storage stability = format: physicochemical; conditions: at RT
normal HSC = assay: Replating of normal HSC; format: cell-based; conditions: at doses that inhibited CML HSC and GMP
Experimental: (§1) On day 10, individual colonies were plucked and replicated in new methylcellulose and the replating efficiency was determined.

Solubility in water = format: physicochemical
[2] = log P (partition coefficient); format: physicochemical
[3] = system: GMP from advanced phase CML; assay: Replating efficiency of CML GMP; format: cell-based; conditions: replating efficiency after day 10 colony replating in methylcellulose
Experimental: as §1

BALB/C mice = assay: Toxicity tests in mice; format: in vivo; conditions: for toxic / adverse effects in mice: doses up to 100 mg/kg
[4] = system: chronic myelogenous leukemia stem cell (CML HSC); assay: Replating efficiency (self-renewal) of CML hematopoietic stem cells; format: cell-based; conditions: for self-renewal / replating efficiency of leukemia stem cells: 2 uM drug concentration; for inhibition of CML HSC replating: replating efficiency after day 10 colony replating in methylcellulose
Experimental: as §1

Molecule: NC1=N[C@]23CCCN2C(=O)c2cc(Br)c(Br)n2[C@@H]3N1 [dibromophakelin, reference compound]
- inhibition of wnt-signaling path in HEK293 reporter assay [1]: did not inhibit

Molecule: c1ccc2nc3ccccc3c-2nc1 [indoloazepine, reference compound]
- inhibition of wnt-signaling path in HEK293 reporter assay [1]: did not inhibit

Molecule: NC1=NC(=O)/C(=C2\CCNC(=O)c3[nH]c(Br)cc32)N1 [Hymenialdesine, hymenialdesine, reference compound]
- inhibition of wnt-signaling path in HEK293 reporter assay [1]: did not inhibit

Molecule: NC1=NC(=O)/C(=C2\CCNC(=O)c3[nH]ccc32)N1 [debromohymenialdesine, (4Z)-4-(2-amino-5-oxo-3,5-dihydro-4H-imidazol-4-ylidene)-4,5,6,7-tetrahy-dropyrrolo(2,3-c)azepin-8(1H)-one]
- Storage stability (Storage stability): several months
- effect on normal HSC replating (normal HSC): spared
- solubility (Solubility in water): 22 µg/mL (≈ 89.7 µM)
- logP [2]: -0.58
- inhibition of CML GMP replating [3]: inhibited
- toxic / adverse effects in mice (BALB/C mice; listed as MC-001): no adverse affects
- toxic / adverse effects in mice (BALB/C mice; listed as dBHD): no toxic effects
- tolerability in mice (BALB/C mice; mouse, in vivo): well tolerated
- inhibition of wnt-signaling in HEK293 cells transfected with a TCF/LEF dependent reporter gene [1]: inhibited
- IC50 ([1]; Homo sapiens, HEK293 cells, TCF/LEF dependent reporter gene, read-out: IC50 from dose response curve, HEK293 cell line assay): 2000 nM
- activity of synthetically obtained compound versus natural product ([1]; compound made by total synthesis, cell based reporter system): comparable to the natural product
- self-renewal / replating efficiency of leukemia stem cells [4]: completely abrogated
- self-renewal / replating efficiency of leukemia stem cells ([4]; listed as MC-001): completely abrogates
- inhibition of CML HSC replating [4]: inhibited

B1: Recombinant Dkk1: recombinant Dkk1, a Wnt inhibitor used as comparator (protein, UniProt O94907 32-266, looked up)
Dickkopf-related protein 1: TLNSVLNSNAIKNLPPPLGGAAGHPGSAVSAAPGILYPGGNKYQTIDNYQPYPCAEDEECGTDEYCASPTRGGDAGVQICLACRKRRKRCMRHAMCCPGNYCKNGICVSSDQNHFRGEIEETITESFGNDHSTLDGYSRRTTLSSKMYHTKGQEGSVCLRSSDCASGLCCARHFWSKICKPVLKEGQVCTKHRRKGSHGLEIFQRCYCGEGLSCRIQKDHHQASNSSRLHTCQRH
- inhibition of CML HSC replating [4]: did not inhibit

From patent US8304408B2, “Wnt signaling inhibitors, and methods for making and using them” (The Regents of the University of California, priority 2007, dated 2012)
